Test results: PubChem BioAssay AID330 (DTP/NCI, 2004)
Values joined by “and” are separate entries in the source; they are usually repeats but may differ in a detail not shown here. Equal entries are not always repeated. Toxic doses and inconclusive results are not listed. Rule for the calls: active = survival T/C of 150% or more; inactive = T/C below 125% in these data.

System: P388 leukemia ip, CD2F1 mice, survival T/C
Assay: NCI In Vivo Anticancer Drug Screen. Data for tumor model P388 Leukemia (intraperitoneal) in CD2F1 (CDF1) mice
Conditions: endpoint: median survival time, higher = longer survival
Method in brief: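 Mice carrying the transplanted tumor received test compound or vehicle. Survival was recorded in each group, and the value is the treated-group measurement divided by that of the vehicle-treated control group.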

[1] = dose: 0.19 mg/kg/injection, schedule: Q01DX009 (ip), vehicle: saline
[2] = dose: 100.0 mg/kg/injection, schedule: Q01DX009 (ip), vehicle: saline with Tween-80
[3] = dose: 50.0 mg/kg/injection, schedule: Q01DX005 (ip), vehicle: Klucel (hydroxypropylcellulose) (HPC)
[4] = dose: 100.0 mg/kg/injection, schedule: Q01DX005 (ip), vehicle: Klucel (hydroxypropylcellulose) (HPC)
[5] = dose: 200.0 mg/kg/injection, schedule: Q01DX005 (ip), vehicle: Klucel (hydroxypropylcellulose) (HPC)
[6] = dose: 50.0 mg/kg/injection, schedule: Q01DX005 (ip), vehicle: saline with Tween-80
[7] = dose: 100.0 mg/kg/injection, schedule: Q01DX005 (ip), vehicle: saline with Tween-80
[8] = dose: 200.0 mg/kg/injection, schedule: Q01DX005 (ip), vehicle: saline with Tween-80
[9] = dose: 60.0 mg/kg/injection, schedule: Q01DX005 (ip), vehicle: Klucel (hydroxypropylcellulose) (HPC)
[10] = dose: 120.0 mg/kg/injection, schedule: Q01DX005 (ip), vehicle: Klucel (hydroxypropylcellulose) (HPC)
[11] = dose: 60.0 mg/kg/injection, schedule: Q01DX005 (ip), vehicle: saline with Tween-80
[12] = dose: 120.0 mg/kg/injection, schedule: Q01DX005 (ip), vehicle: saline with Tween-80
[13] = dose: 240.0 mg/kg/injection, schedule: Q01DX005 (ip), vehicle: saline with Tween-80

Measured: T/C

NC(CCC(=O)O)(C(=O)O)c1ccccc1 (configuration not stated)
inactive: [1] 101 % of control | dose: 0.38 mg/kg/injection, schedule: Q01DX009 (ip), vehicle: saline 104 % of control | dose: 0.75 mg/kg/injection, schedule: Q01DX009 (ip), vehicle: saline 100 % of control | dose: 1.5 mg/kg/injection, schedule: Q01DX009 (ip), vehicle: saline with Tween-80 98 % of control | dose: 1.5 mg/kg/injection, schedule: Q01DX009 (ip), vehicle: saline 109 % of control | dose: 3.0 mg/kg/injection, schedule: Q01DX009 (ip), vehicle: saline with Tween-80 98 % of control | [2] 92 % of control | dose: 200.0 mg/kg/injection, schedule: Q01DX009 (ip), vehicle: saline with Tween-80 93 % of control

COc1ccc2[nH]cc(CC(NC(C)=O)C(=O)O)c2c1 (configuration not stated)
inactive: [3] 98 % of control | [4] 104 % of control | [5] 101 % of control

Cc1ccc2[nH]c(=S)n(-c3ccc(S(=O)(=O)N4CCCCC4)cc3)c(=O)c2c1
inactive: [6] 89 % of control | [7] 91 % of control | [8] 90 % of control

COc1cc2c(cc1OC)C(=O)C(=C1C=CN(C)C=C1)N=C2
inactive: dose: 100.0 mg/kg/injection, schedule: Q04DX003 (ip), vehicle: saline 101 % of control | dose: 200.0 mg/kg/injection, schedule: Q04DX003 (ip), vehicle: saline 95 % of control | dose: 400.0 mg/kg/injection, schedule: Q04DX003 (ip), vehicle: saline 100 % of control

O=C1OCc2c1[nH]c(=O)[nH]c2=O
inactive: dose: 6.25 mg/kg/injection, schedule: Q01DX009 (ip), vehicle: distilled water + Tween-80 105 % of control | dose: 12.5 mg/kg/injection, schedule: Q01DX009 (ip), vehicle: distilled water + Tween-80 96 % of control | dose: 25.0 mg/kg/injection, schedule: Q01DX009 (ip), vehicle: distilled water + Tween-80 110 % of control | dose: 50.0 mg/kg/injection, schedule: Q01DX009 (ip), vehicle: distilled water + Tween-80 100 % of control | dose: 100.0 mg/kg/injection, schedule: Q01DX009 (ip), vehicle: distilled water + Tween-80 105 % of control and 109 % of control | dose: 200.0 mg/kg/injection, schedule: Q01DX009 (ip), vehicle: distilled water + Tween-80 98 % of control | dose: 400.0 mg/kg/injection, schedule: Q01DX009 (ip), vehicle: distilled water + Tween-80 90 % of control

O=C1OI(OI2OC(=O)c3ccccc32)c2ccccc21
inactive: dose: 15.0 mg/kg/injection, schedule: Q01DX005 (ip), vehicle: Klucel (hydroxypropylcellulose) (HPC) 102 % of control and 116 % of control | dose: 30.0 mg/kg/injection, schedule: Q01DX005 (ip), vehicle: Klucel (hydroxypropylcellulose) (HPC) 104 % of control and 92 % of control | [9] 100 % of control and 101 % of control and 113 % of control | [10] 101 % of control and 113 % of control

CCc1ccc(NC(=O)/C=C\C(=O)O)cc1
inactive: [6] 98 % of control | [7] 95 % of control | [8] 90 % of control

CSCC[C@H](NC(C)=O)B1OCCO1
inactive: dose: 60.0 mg/kg/injection, schedule: Q01DX005 (ip), vehicle: saline 100 % of control | dose: 120.0 mg/kg/injection, schedule: Q01DX005 (ip), vehicle: saline 104 % of control | dose: 240.0 mg/kg/injection, schedule: Q01DX005 (ip), vehicle: saline 109 % of control

O=C(O)C1C2CC3CC2C(C3)C1C(=O)O (configuration not stated)
inactive: [9] 100 % of control | [10] 100 % of control | dose: 240.0 mg/kg/injection, schedule: Q01DX005 (ip), vehicle: Klucel (hydroxypropylcellulose) (HPC) 99 % of control

COc1cc(N)c2ncccc2c1Br
inactive: [3] 100 % of control | [4] 104 % of control | [5] 97 % of control

CCOC(=O)C1=CNc2c(C#N)cnn2C1(C(=O)OCC)c1cn(C)c2ccccc12 (configuration not stated)
inactive: dose: 6.25 mg/kg/injection, schedule: Q01DX005 (ip), vehicle: saline with Tween-80 99 % of control | dose: 12.5 mg/kg/injection, schedule: Q01DX005 (ip), vehicle: saline with Tween-80 95 % of control | dose: 25.0 mg/kg/injection, schedule: Q01DX005 (ip), vehicle: saline with Tween-80 87 % of control

Cc1ccccc1C(=O)N1C(=O)Cc2ccccc21
inactive: dose: 100.0 mg/kg/injection, schedule: Q01DX001 (ip), vehicle: Klucel (hydroxypropylcellulose) (HPC) 97 % of control | dose: 200.0 mg/kg/injection, schedule: Q01DX001 (ip), vehicle: Klucel (hydroxypropylcellulose) (HPC) 91 % of control | dose: 400.0 mg/kg/injection, schedule: Q01DX001 (ip), vehicle: Klucel (hydroxypropylcellulose) (HPC) 90 % of control

CCC(c1ccc(OC)cc1)C(NCC(=O)NNC(=S)NCc1ccccc1)c1ccc(OC)cc1 (configuration not stated)
inactive: dose: 100.0 mg/kg/injection, schedule: Q01DX001 (ip), vehicle: saline with Tween-80 92 % of control | dose: 200.0 mg/kg/injection, schedule: Q01DX001 (ip), vehicle: saline with Tween-80 99 % of control | dose: 400.0 mg/kg/injection, schedule: Q01DX001 (ip), vehicle: saline with Tween-80 99 % of control

C/C(=C\C(=O)O)Cc1ccccc1 (tested in a mixture with another compound)
inactive: dose: 100.0 mg/kg/injection, schedule: Q04DX003 (ip), vehicle: other 108 % of control | dose: 200.0 mg/kg/injection, schedule: Q04DX003 (ip), vehicle: other 100 % of control | dose: 400.0 mg/kg/injection, schedule: Q04DX003 (ip), vehicle: other 108 % of control

CCCCCCCCCCCCCC[N+]1(CC)CCCCC1
inactive: [1] 113 % of control and 115 % of control | dose: 0.39 mg/kg/injection, schedule: Q01DX009 (ip), vehicle: saline 111 % of control and 113 % of control and 118 % of control | dose: 0.78 mg/kg/injection, schedule: Q01DX009 (ip), vehicle: saline 120 % of control and 94 % of control | dose: 1.56 mg/kg/injection, schedule: Q01DX009 (ip), vehicle: saline 109 % of control | dose: 1.56 mg/kg/injection, schedule: Q04DX003 (ip), vehicle: saline 113 % of control

O=C(Nc1ccc(Cl)cc1)Nc1nnc(-c2cc([N+](=O)[O-])cc([N+](=O)[O-])c2)o1
inactive: [11] 98 % of control | [12] 92 % of control | [13] 86 % of control

CCB1OC2C(COC(C)=O)OC(OC(C)=O)C2O1 (configuration not stated)
inactive: [6] 101 % of control | [7] 110 % of control | [8] 113 % of control

NC(=O)NC(=O)C(Cc1ccc(Cl)cc1)c1ccccc1 (configuration not stated)
inactive: dose: 30.0 mg/kg/injection, schedule: Q01DX005 (ip), vehicle: saline with Tween-80 96 % of control and 97 % of control | [11] 89 % of control and 94 % of control | [12] 87 % of control and 89 % of control | [13] 88 % of control

Clc1ccccc1N1CCN(CCCN2CCN(c3ccccc3Cl)CC2)CC1
inactive: dose: 25.0 mg/kg/injection, schedule: Q01DX009 (ip), vehicle: saline with Tween-80 97 % of control | dose: 50.0 mg/kg/injection, schedule: Q01DX009 (ip), vehicle: saline with Tween-80 94 % of control | [2] 100 % of control

CSC1CC(C)(O)Cc2cc3c(c(O)c21)C(=O)c1c(O)cc2c(c1C3=O)OC1OC2(C)C(O)C(N(C)C)C1O (configuration not stated)
inactive: dose: 16.0 mg/kg/injection, schedule: Q01DX009 (ip), vehicle: other 100 % of control

C=CC1CCCC[S+]1CC(=O)OCC (configuration not stated)
inactive: dose: 25.0 mg/kg/injection, schedule: Q04DX002 (ip), vehicle: saline with Tween-80 91 % of control | dose: 50.0 mg/kg/injection, schedule: Q04DX002 (ip), vehicle: saline with Tween-80 101 % of control | dose: 100.0 mg/kg/injection, schedule: Q04DX002 (ip), vehicle: saline with Tween-80 103 % of control and 109 % of control

Cc1ccc(Nc2nnc(-c3ccc4c(c3)OCO4)o2)c(C)c1
inactive: [3] 97 % of control | [4] 97 % of control | [5] 100 % of control
